Laboratory results: patent publication US10954260B2, “Cymanquine compounds and derivatives thereof and uses thereof” (UNIVERSITY OF VERMONT AND STATE AGRICULTURAL COLLEGE, priority 2015, dated 2021)
“Also recorded” adds a separate entry of the source.

How the values were obtained:
[1] = system: panel of human cancer cell lines; assay: Cytotoxicity assay (MTS cell viability, 72 h); assay type: cell-based
Experimental: (§1) Materials and Methods. Cell lines and reagents. Human cancer cell lines ACHN (kidney adenocarcinoma), BxPC3 (pancreatic adenocarcinoma), DU145 (prostate carcinoma), HT29 (colorectal adenocarcinoma), Jurkat (T-cell lymphoma), LNCaP (androgen sensitive prostate adenocarcinoma), PC3 (androgen insensitive prostate adenocarcinoma), SB1A (melanoma), and T47D (breast infiltrating ductal carcinoma) were cultured RPMI 1640 (Mediatech, Inc., Manassas, Va.) supplemented with 10% fetal bovine serum, 1% penicillin/streptomycin/amphotericin B solution, 1 mM sodium pyruvate, 1% MEM non-essential amino acid solution, and 2 mM L-glutamine at 37° C. in a 5% CO2, humidified incubator. All supplements were purchased from HyClone™ (Logan, Utah). […] The resulting pH was measured to be 6.72±0.06 in the absence of cells. […]
(§2) Cytotoxicity assay. […] Viability was measured by the CellTiter 96 AQueous Non-Radioactive Cell Proliferation Assay (Promega, Madison, Wis.) according to manufacturer's instruction. Briefly, 20 μL of MTS/PMS reagent was added to each tissue culture well, and incubated at 37° C. for a minimum of 2 hours, or until the maximum absorbance at 490 nm on the plate (wells with highest cell numbers) reached a value greater than 0.6. Absorbance was measured on a Perkin-Elmer Victor X4 multi-label plate reader. […]

LC3-II = assay: Western blotting for LC3 isoforms in SB1A cells; assay type: cell-based, human; settings: 24 h
Experimental: (§3) FIG. 10. Evidence of lysosomal accumulation and cytotoxicity obtained through autophagy blockade by Cymanquine. A, SB1A cells were treated with various concentrations of Cymanquine or CQ for 24 h prior to western blotting for LC3 isoforms 1 and 2 (LC3-I and II—see text), respectively. […] B, SB1A cells stably expressing EGFP-LC3 were treated with indicated concentrations of CQ and Cymanquine for 4 h prior to fluorescence microscopy evaluation of EGFP-LC3 sub-cellular deposition. C-E, SB1A were treated with various concentrations of Cymanquine or CQ for 24 h prior to simultaneous staining with NBD-PZ and propidium iodide and analysis by flow cytometry. C, Live cells, sorted based on absence of propidium iodide staining (left panel, pentagonal gate) were analyzed for NBD-PZ staining, indicative of lysosomal content. B,C, The dose-response of Cymanquine and CQ on B, percentage of live cells (negative for propidium iodide staining), and C, NBD-PZ median fluorescence intensity of live cells. […]
(§4) Experiments aimed at elucidating the mechanism of action of Cymanquine were conducted. […] Preliminary quantitation of Cymanquine and CQ from isolated lysosomes of cells treated with equimolar quantities of either drug have been encouraging, showing a 60-fold higher accumulation of Cymanquine compared to CQ, as measured by HPLC-MS/MS.

[2] = system: isolated lysosomes of cells; assay: Quantitation of drug from isolated lysosomes by HPLC-MS/MS; assay type: cell-based; settings: preliminary, cells treated with equimolar quantities of either drug
Experimental: Experiments aimed at elucidating the mechanism of action of Cymanquine were conducted. […] It is known that the blockade of autophagy results in the accumulation of neutralized lysosomes and of proteins normally cleared by autophagic flux. FIG. 10 presents data that support a mechanism of action for Cymanquine as a weak base lysosomotropic autophagy inhibitor. […] The lysosomotropic fluorophore, NBD-PZ, was employed in conjunction with propidium iodide (PI) to simultaneously measure lysosomal accumulation, neutralization, and cell viability by flow cytometry on CQ and Cym treated SB1A cells (FIG. 10C-E). […] Furthermore, at the highest concentration of Cymanquine tested, NBD-PZ staining is reduced, due to either lysosome loss, or neutralization, as emission of this fluorophore is highly dependent upon pH. Preliminary quantitation of Cymanquine and CQ from isolated lysosomes of cells treated with equimolar quantities of either drug have been encouraging, showing a 60-fold higher accumulation of Cymanquine compared to CQ, as measured by HPLC-MS/MS.

[3] = Cyclic voltammetry, anodic oxidation potentials; assay type: physicochemical; settings: dichloromethane/0.05 M [NBu4][B(C6F5)4]
Experimental: Electrochemical studies were carried out. The electrolyte solution used for these studies, namely dichloromethane with 0.05 M [NBu4][B(C6F5)4] as the supporting electrolyte, is known to provide an optimum medium for the electrochemical oxidation of compounds containing the MnCp(CO)3 (Cp=η^5-C5H5) backbone (Laws et al., J. Am. Chem. Soc. 2008, 130, 9859). The potentials given here are referred to the ferrocene/ferrocenium reference couple. The experiments were carried out in a controlled atmosphere which minimizes exposure to oxygen and water. We refer to two types of standard electrochemical techniques that are commonly described in books on electrochemistry: cyclic voltammetry and bulk electrolysis (Bard, A. J.; Faulkner, L. R. Electrochemical Methods, John Wiley & Sons, New York, 2001, second edition) The former is useful for the analytical and gross mechanistic aspects of the electron-transfer properties of a compound, whereas the latter is most often employed for the electro-synthetic function of making isolable quantities of electrochemical oxidation or reduction products.
Anodic oxidation of the three compounds was investigated. […]
Table of potentials (vs ferrocene/ferrocenium (FcH)) measured by cyclic voltammetry for oxidation of compounds 3, 4, and 5 in dichloromethane/0.05 M [NBu4][B(C6F5)4]. […]

RWPE-1 = assay: Cytotoxicity assay (MTS cell viability, 72 h) in normal prostate epithelial cells; assay type: cell-based, human; settings: normal pH
Experimental: as §1, §2

[4] = system: EGFP-LC3 fusion protein in SB1A cells; assay: Fluorescence microscopy of EGFP-LC3 sub-cellular distribution; assay type: cell-based, human; settings: SB1A stably expressing EGFP-LC3, 4 h
Experimental: as §3, §4

SB1A cells = assay: Flow cytometry with NBD-PZ and propidium iodide staining; assay type: cell-based, human; settings: 24 h
Experimental: FIG. 10. […] C, Live cells, sorted based on absence of propidium iodide staining (left panel, pentagonal gate) were analyzed for NBD-PZ staining, indicative of lysosomal content. […] Data in B,C presented as mean+/−SEM (n=3). *P<0.05, **P<0.001 by student's t-test.
Experiments aimed at elucidating the mechanism of action of Cymanquine were conducted. […] It is known that the blockade of autophagy results in the accumulation of neutralized lysosomes and of proteins normally cleared by autophagic flux.

autophagy = settings: low pH media, and bulky tumors in vivo; Pellegrini et al.; cited from earlier work

Row | Compound | cytotoxicity compared to CQ ([1]; low-pH (PIPES-supplemented) media) | cytotoxicity compared to CQ ([1]; normal pH growth conditions, listed as CMQ) | cell death at the highest concentrations tested (LC3-II) | accumulation of autophagy marker LC3-II (LC3-II; western blot) | accumulation in lysosomes compared to CQ [2] | Ep(1) ([3]; first oxidation, anodic peak potential, irreversible) | E1/2(2) or Ep(2) ([3]; second oxidation, given as Ep (irreversible)) | relative sensitivity of RWPE-1 compared to transformed cell lines (RWPE-1) | subcellular distribution of EGFP-LC3 [4] | NBD-PZ staining (SB1A cells; highest concentration tested) | cytotoxicity (percentage of live cells, propidium iodide) (SB1A cells; low micromolar exposures) | lysosome content (NBD-PZ staining of live cells) (SB1A cells; low micromolar exposures) | anti-autophagic efficacy (autophagy)
1 | cymanquine [Compound 3] | more potent cytotoxicity than CQ | more potent cytotoxicity than CQ; also recorded: more potent single-agent cytotoxic properties than CQ | extensive cell death | dose-responsive accumulation | 60 fold | 0.82 V vs FcH | 1.25 V vs FcH | most resistant | punctate EGFP-LC3 emission patterns | reduced | significant cytotoxicity | marked accumulation of lysosomes | –
2 | CCN(CC)CCCC(C)Nc1ccnc2cc(Cl)ccc12 (stereo not shown) [CQ, Chloroquine] | – | – | – | – | – | – | – | – | – | – | – | – | poor anti-autophagic efficacy
